# In patent US10854312B2, “Selective peptide antagonists” (BIONIZ, LLC, priority 2013, dated 2020):
# Entries after “also recorded” stand apart in the source; their conditions may differ. No end group written: not given here.
# Tested on: HAM/TSP T cells
# Assay: Spontaneous ex vivo proliferation of HAM/TSP patient lymphocytes (thymidine incorporation)
# Type: cell-based, human
# Settings: 5 days culture without exogenous cytokines; BNZ132-1 1 μM or 3 and 0.3 μM; mABs 5 mg/ml each
# Method: FIG. 7A, and FIG. 7B present effective inhibition of a combined function of target γc-cytokines by BNZ132-1. […] Human Peripheral T cells were prepared as described in the methodology section. Four hundred thousand cells (in 200 μl culture) were incubated with the cytokines and BNZ132-1 at the indicated concentrations for 24 h, and cellular proliferation was determined by the […] using the WST-1 reagent (Clontech). The Y-axis represents the OD450 values. The p values; 1 nM cytokine combination-No inhibition vs. anti-IL-2; 0.33, No inhibition vs. anti-IL-15; 0.13, No inhibition vs. anti IL-2+IL-15; 0.003. No inhibition vs. BNZ132-1; 0.021. 0.1 nM cytokine combination-No inhibition vs. anti-IL-2; 0.046, No inhibition vs. anti-IL-15; 0.057, No inhibition vs. anti IL-2+IL-15; 0.001, No inhibition vs. anti IL-2+15; 0.001, No inhibition vs.BNZ132-1; 0.001. The assay was performed in triplicate. […] Peripheral blood mononuclear cells were purified from the blood of a HAM-TSP patient and set up for a spontaneous proliferation assay as previously described36. The cellular proliferation was measured by the thymidine incorporation assay. The Y-axis represents the cpm values. Doses are on the X-axis; BNZ132-1, 3 and 0.3 μM. Antibodies against IL-2 or IL-15 (1 and 10 μg ml-1 of each, R & D Systems). […]
sequence,measurement,value
IKEFLQRFIHIVQSIINTS [BNZ132-1],inhibition of spontaneous ex vivo proliferation of HAM/TSP T cells,as effective inhibition as combined anti-IL-2 and anti-IL-15 mABs; also recorded: Efficient inhibition
